Results as given in ChEMBL document CHEMBL5500372, “Novel natural osthole-inspired amphiphiles as membrane targeting antibacterials against methicillin-resistant Staphylococcus aureus (MRSA)” (Eur J Med Chem, 2024).
Values after ≈ are worked out from the molar mass of the structure shown.

What was measured:
Escherichia coli = experiment: Antibacterial activity against Escherichia coli ATCC 25922 measured after 18 hrs by CLSI based broth microdilution method; format: functional
Staphylococcus aureus [1] = experiment: Antibacterial activity against methicillin-resistant Staphylococcus aureus clinical isolate 14 measured after 18 hrs by CLSI based broth microdilution method; format: functional
Staphylococcus aureus [2] = experiment: Antibacterial activity against methicillin-resistant Staphylococcus aureus clinical isolate 11 measured after 18 hrs by CLSI based broth microdilution method; format: functional
Staphylococcus aureus [3] = experiment: Antibacterial activity against methicillin-resistant Staphylococcus aureus clinical isolate 21 measured after 18 hrs by CLSI based broth microdilution method; format: functional
Staphylococcus aureus [4] = experiment: Antibacterial activity against methicillin-resistant Staphylococcus aureus clinical isolate 23 measured after 18 hrs by CLSI based broth microdilution method; format: functional
Staphylococcus aureus [5] = experiment: Antibacterial activity against methicillin-resistant Staphylococcus aureus clinical isolate 13 measured after 18 hrs by CLSI based broth microdilution method; format: functional
Staphylococcus aureus [6] = experiment: Antibacterial activity against Staphylococcus aureus ATCC 29213 measured after 18 hrs by CLSI based broth microdilution method; format: functional
Staphylococcus aureus [7] = experiment: Antibacterial activity against methicillin-resistant Staphylococcus aureus clinical isolate 16 measured after 18 hrs by CLSI based broth microdilution method; format: functional
[8] = Selectivity index, ratio of HC50 for hemolytic activity in sheep erythrocyte assessed as hemolysis to MIC for antibacterial activity against Staphylococcus aureus ATCC 29213; format: toxicity; conditions: sheep erythrocytes, read-out: Selectivity Index
Staphylococcus aureus [9] = experiment: Antibacterial activity against methicillin-resistant Staphylococcus aureus clinical isolate 17 measured after 18 hrs by CLSI based broth microdilution method; format: functional
Staphylococcus aureus [10] = experiment: Antibacterial activity against methicillin-resistant Staphylococcus aureus clinical isolate 12 measured after 18 hrs by CLSI based broth microdilution method; format: functional
Staphylococcus aureus [11] = experiment: Antibacterial activity against methicillin-resistant Staphylococcus aureus clinical isolate 20 measured after 18 hrs by CLSI based broth microdilution method; format: functional
[12] = Hemolytic activity in sheep erythrocyte assessed as hemolysis incubated for 1 hr by absorbance based analysis; format: toxicity, cell-based, Ovis aries; conditions: sheep erythrocytes
Staphylococcus aureus [13] = experiment: Antibacterial activity against methicillin-resistant Staphylococcus aureus clinical isolate 22 measured after 18 hrs by CLSI based broth microdilution method; format: functional

Compound | MIC (Escherichia coli) [µg/mL] | MIC (Staphylococcus aureus [1]) [µg/mL] | MIC (Staphylococcus aureus [2]) [µg/mL] | MIC (Staphylococcus aureus [3]) [µg/mL] | MIC (Staphylococcus aureus [4]) [µg/mL] | MIC (Staphylococcus aureus [5]) [µg/mL] | MIC (Staphylococcus aureus [6]) [µg/mL] | MIC (Staphylococcus aureus [7]) [µg/mL] | selectivity ratio [8] | MIC (Staphylococcus aureus [9]) [µg/mL] | MIC (Staphylococcus aureus [10]) [µg/mL] | MIC (Staphylococcus aureus [11]) [µg/mL] | HC50 at 1 h [12] [µg/mL] | MIC (Staphylococcus aureus [13]) [µg/mL]
C[C@@H](O)[C@H]1C(=O)N2C(C(=O)O)=C(S[C@@H]3CN[C@H](C(=O)N(C)C)C3)[C@H](C)[C@H]12 [MEROPENEM] | 0.062 (≈ 0.162 µM) |  |  |  |  |  |  |  |  |  |  |  |  | 
CCNC(=O)C[N+](C)(C)CCCCOc1ccc2ccc(=O)oc2c1CC=C(C)C.[Br-] | 128 | 128 | 128 | 128 | 128 | 128 | 128 | 128 | > 10 | 128 | 128 | 64 | > 1280 | 128
CCCCN(CCCC)C(=O)C[N+](C)(C)CCCCOc1ccc2ccc(=O)oc2c1CC=C(C)C.[Br-] | 64 | 4 | 4 | 2 | 4 | 4 | 2 | 2 | > 640 | 4 | 8 | 2 | > 1280 | 2
CC(C)=CCc1c(OCCC[N+](C)(C)CC(=O)N(C(C)C)C(C)C)ccc2ccc(=O)oc12.[Br-] | 128 | 16 | 16 | 16 | 16 | 16 | 16 | 16 | > 40 | 16 | 16 | 32 | > 640 | 16
CCCCCCNC(=O)C[N+](C)(C)CCCOc1ccc2ccc(=O)oc2c1CC=C(C)C.[Br-] | 32 | 4 | 4 | 4 | 4 | 8 | 4 | 4 | > 320 | 4 | 8 | 4 | > 1280 | 4
COc1ccc2ccc(=O)oc2c1CC=C(C)C [OSTHOLE] | > 64 | 64 (≈ 262 µM) | > 64 | > 64 | > 64 | > 64 | > 64 | 64 (≈ 262 µM) |  | 64 (≈ 262 µM) | 64 (≈ 262 µM) | 64 (≈ 262 µM) | > 80 | 64 (≈ 262 µM)
CCCNC(=O)C[N+](C)(C)CCCCCOc1ccc2ccc(=O)oc2c1CC=C(C)C.[Br-] | 128 | 16 | 32 | 32 | 32 | 32 | 32 | 16 | 35.8 | 32 | 32 | 32 | 1140 | 32
CCCCCNC(=O)C[N+](C)(C)CCCCCOc1ccc2ccc(=O)oc2c1CC=C(C)C.[Br-] | 64 | 2 | 4 | 2 | 2 | 4 | 4 | 2 | > 320 | 4 | 4 | 64 | > 1280 | 2
CCCCNC(=O)C[N+](C)(C)CCCCCOc1ccc2ccc(=O)oc2c1CC=C(C)C.[Br-] | 128 | 8 | 8 | 8 | 8 | 8 | 8 | 8 | 99.8 | 8 | 16 | 8 | 798 | 8
CCNC(=O)C[N+](C)(C)CCCOc1ccc2ccc(=O)oc2c1CC=C(C)C.[Br-] | > 128 | 128 | 128 | 128 | 128 | 128 | 128 | 128 | > 5 | 128 | 128 | 128 | > 640 | 128
CCCCNC(=O)C[N+](C)(C)CCCCOc1ccc2ccc(=O)oc2c1CC=C(C)C.[Br-] | 128 | 16 | 16 | 16 | 16 | 32 | 32 | 16 | > 40 | 16 | 32 | 16 | > 1280 | 16
CCCN(CCC)C(=O)C[N+](C)(C)CCCCOc1ccc2ccc(=O)oc2c1CC=C(C)C.[Br-] | > 128 | 16 | 16 | 16 | 16 | 32 | 16 | 16 | > 80 | 16 | 32 | 32 | > 1280 | 16
CCCN(CCC)C(=O)C[N+](C)(C)CCCOc1ccc2ccc(=O)oc2c1CC=C(C)C.[Br-] | 128 | 16 | 32 | 32 | 32 | 32 | 32 | 32 | > 40 | 16 | 32 | 32 | > 1280 | 32
CC(C)=CCc1c(OCCCC[N+](C)(C)CC(=O)N(CC(C)C)CC(C)C)ccc2ccc(=O)oc12.[Br-] | 128 | 2 | 2 | 2 | 2 | 4 | 4 | 2 | > 320 | 1 | 4 | 2 | > 1280 | 4
CCCCN(CCCC)C(=O)C[N+](C)(C)CCCOc1ccc2ccc(=O)oc2c1CC=C(C)C.[Br-] | 128 | 4 | 4 | 4 | 4 | 4 | 4 | 4 | 272 | 8 | 8 | 4 | 1090 | 4
CCCNC(=O)C[N+](C)(C)CCCOc1ccc2ccc(=O)oc2c1CC=C(C)C.[Br-] | 128 | 128 | 128 | 128 | 128 | 128 | 128 | 128 | > 10 | 128 | 64 | 128 | > 1280 | 128
CC(C)=CCc1c(OCCC[N+](C)(C)CC(=O)N(CC(C)C)CC(C)C)ccc2ccc(=O)oc12.[Br-] | 128 | 4 | 4 | 4 | 4 | 4 | 4 | 4 | > 320 | 4 | 8 | 4 | > 1280 | 4
CCCCCNC(=O)C[N+](C)(C)CCCOc1ccc2ccc(=O)oc2c1CC=C(C)C.[Br-] | 128 | 16 | 16 | 8 | 8 | 16 | 16 | 8 | 75.3 | 16 | 16 | 8 | 1200 | 8
CCCNC(=O)C[N+](C)(C)CCCCOc1ccc2ccc(=O)oc2c1CC=C(C)C.[Br-] | 128 | 32 | 64 | 64 | 64 | 64 | 64 | 32 | > 20 | 64 | 64 | 64 | > 1280 | 64
CCN(CC)C(=O)C[N+](C)(C)CCCCCOc1ccc2ccc(=O)oc2c1CC=C(C)C.[Br-] | 128 | 32 | 32 | 32 | 32 | 32 | 32 | 32 | 40 | 32 | 64 | 32 | > 1280 | 32
CCCCNC(=O)C[N+](C)(C)CCCOc1ccc2ccc(=O)oc2c1CC=C(C)C.[Br-] | 128 | 32 | 64 | 32 | 32 | 32 | 32 | 32 | > 40 | 32 | 64 | 64 | > 1280 | 32
